Measured values published in the supplement of paper PMC10307832.

Legend:
Assay in all cases: relative viability (nuclei count vs DMSO), 5 days (fraction); higher = more cells survive
[1] = system: NCI-H647
Summary of the method: (§1)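 Relative viability was taken as the ratio of nuclei in treated wells to nuclei in vehicle wells. Lung cancer cell lines in 1536-well plates received compounds by pin tool one day after seeding, either one drug alone or a fixed anchor-drug dose plus five library-drug doses (not always all listed) in √10 steps. Nuclei were counted on 4× images after 5 days of treatment, and values are medians of duplicate plates.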

[2] = system: BEN
Summary of the method: as §1

[3] = system: NCI-H1792
Summary of the method: as §1

[4] = system: NCI-H1395
Summary of the method: as §1

[5] = system: NCI-H522
Summary of the method: as §1

[6] = system: NCI-H2009
Summary of the method: as §1

[7] = system: SK-LU-1
Summary of the method: as §1

[8] = system: NCI-H1355
Summary of the method: as §1

[9] = system: NCI-H1993
Summary of the method: as §1

[10] = system: HARA
Summary of the method: as §1

[11] = system: SK-MES-1
Summary of the method: as §1

Work on O=c1cc(-c2cccc3c2Sc2ccccc2S3)oc(N2CCOCC2)c1 + CC(=O)Nc1cccc(-n2c(=O)n(C3CC3)c(=O)c3c(Nc4ccc(I)cc4F)n(C)c(=O)c(C)c32)c1 [Trametinib] (partner 0.02 µM) yielded a relative viability ([1]; first compound 0.08 µM) of 0.452, a relative viability ([1]; first compound 0.253 µM) of 0.543 and a relative viability ([1]; first compound 0.8 µM) of 0.405. For the same compound, the relative viability ([1]; first compound 2.53 µM) was 0.376, the relative viability ([1]; first compound 8 µM) was 0.418 and the relative viability ([2]; first compound 0.08 µM) was 0.945. The relative viability ([2]; first compound 0.253 µM) was 0.982, the relative viability ([2]; first compound 0.8 µM) was 1.1 and the relative viability ([2]; first compound 2.53 µM) was 0.975. It also gave a relative viability ([2]; first compound 8 µM) of 1.07, a relative viability ([3]; first compound 0.08 µM) of 0.446 and a relative viability ([3]; first compound 0.253 µM) of 0.685. For the same compound, the relative viability ([3]; first compound 0.8 µM) was 0.441, the relative viability ([3]; first compound 2.53 µM) was 0.421 and the relative viability ([3]; first compound 8 µM) was 0.38. It also gave a relative viability ([4]; first compound 0.08 µM) of 0.883, a relative viability ([4]; first compound 0.253 µM) of 1.05 and a relative viability ([4]; first compound 0.8 µM) of 1.14. It also gave a relative viability ([4]; first compound 2.53 µM) of 0.964, a relative viability ([4]; first compound 8 µM) of 1.06 and a relative viability ([5]; first compound 0.08 µM) of 0.725. It also gave a relative viability ([5]; first compound 0.253 µM) of 0.988, a relative viability ([5]; first compound 0.8 µM) of 0.724 and a relative viability ([5]; first compound 2.53 µM) of 0.815. It also gave a relative viability ([5]; first compound 8 µM) of 0.734, a relative viability ([6]; first compound 0.08 µM) of 0.257 and a relative viability ([6]; first compound 0.253 µM) of 0.236. For the same compound, the relative viability ([6]; first compound 0.8 µM) was 0.24, the relative viability ([6]; first compound 2.53 µM) was 0.213 and the relative viability ([6]; first compound 8 µM) was 0.208. The relative viability ([7]; first compound 0.08 µM) was 0.422, the relative viability ([7]; first compound 0.253 µM) was 0.512 and the relative viability ([7]; first compound 0.8 µM) was 0.582. It also gave a relative viability ([7]; first compound 2.53 µM) of 0.414, a relative viability ([7]; first compound 8 µM) of 0.415 and a relative viability ([8]; first compound 0.08 µM) of 0.524. For the same compound, the relative viability ([8]; first compound 0.253 µM) was 0.468, the relative viability ([8]; first compound 0.8 µM) was 0.348 and the relative viability ([8]; first compound 2.53 µM) was 0.409. It also gave a relative viability ([8]; first compound 8 µM) of 0.352, a relative viability ([9]; first compound 0.08 µM) of 0.462 and a relative viability ([9]; first compound 0.253 µM) of 0.64. It also gave a relative viability ([9]; first compound 0.8 µM) of 0.46, a relative viability ([9]; first compound 2.53 µM) of 0.467 and a relative viability ([9]; first compound 8 µM) of 0.544. The relative viability ([10]; first compound 0.08 µM) was 0.786, the relative viability ([10]; first compound 0.253 µM) was 0.615 and the relative viability ([10]; first compound 0.8 µM) was 0.537. For the same compound, the relative viability ([10]; first compound 2.53 µM) was 0.668, the relative viability ([10]; first compound 8 µM) was 0.581 and the relative viability ([11]; first compound 0.08 µM) was 0.543. It also gave a relative viability ([11]; first compound 0.253 µM) of 0.579, a relative viability ([11]; first compound 0.8 µM) of 0.448 and a relative viability ([11]; first compound 2.53 µM) of 0.481.
